Each structure is given as a SMILES string.

This test deals with T1, human TrkA receptor (Homo sapiens, UniProt P04629).
T1 construct: host or cells: U2OS cells (PathHunter cell line)
T1 sequence (P04629 33-796): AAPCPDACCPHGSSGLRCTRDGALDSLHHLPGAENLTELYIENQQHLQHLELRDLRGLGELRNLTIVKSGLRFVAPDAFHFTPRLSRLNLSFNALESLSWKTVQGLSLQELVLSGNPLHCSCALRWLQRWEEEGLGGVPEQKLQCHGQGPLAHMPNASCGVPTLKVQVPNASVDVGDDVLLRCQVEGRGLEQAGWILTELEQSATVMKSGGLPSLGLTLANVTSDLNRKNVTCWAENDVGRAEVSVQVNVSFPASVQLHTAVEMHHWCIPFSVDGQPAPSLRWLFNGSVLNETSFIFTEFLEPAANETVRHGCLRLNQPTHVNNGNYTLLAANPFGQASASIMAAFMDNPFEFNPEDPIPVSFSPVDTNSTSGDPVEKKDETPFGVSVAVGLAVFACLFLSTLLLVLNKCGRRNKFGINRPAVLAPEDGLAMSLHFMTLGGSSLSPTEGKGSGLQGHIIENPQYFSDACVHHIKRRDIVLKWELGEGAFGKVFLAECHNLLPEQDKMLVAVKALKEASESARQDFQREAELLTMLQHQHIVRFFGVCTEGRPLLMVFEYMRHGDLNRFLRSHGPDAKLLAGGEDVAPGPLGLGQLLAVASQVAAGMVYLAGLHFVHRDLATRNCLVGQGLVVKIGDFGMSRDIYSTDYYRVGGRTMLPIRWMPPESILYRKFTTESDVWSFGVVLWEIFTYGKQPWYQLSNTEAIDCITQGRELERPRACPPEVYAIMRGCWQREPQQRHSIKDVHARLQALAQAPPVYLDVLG
Description: DiscoverX PathHunter TrkA functional assay (NGF-stimulated U2OS cells). In kind it is cell-based. The conditions noted are these: U2OS cells expressing human TrkA-PK, Shc1-EA and p75NTR; compound 1 h, then NGF at ~80% of maximal response for 3 h; luminescence.
Consider `CNCCc1ccn2c(NC(=O)c3ccc(C(F)(F)F)c(-c4ccn(C)n4)c3)c(-c3ccccc3)nc2c1` [Compound 109, N-{7-[2-(methylamino)ethyl]-2-phenylimidazo[1,2-a]pyridin-3-yl}-3-(1-methyl-1H-pyrazol-3-yl)-4-(trifluoromethyl) benzamide], for which half-maximal inhibition (IC50) was put at 169 nM. That is a sub-micromolar value. Consider `Cn1ccc(-c2cc(C(=O)Nc3c(-c4ccccc4)[nH]c4ccc(C(=O)O)cc34)c(F)cc2C(F)(F)F)n1` [Compound 110, 3-({[2-fluoro-5-(1-methyl-1H-pyrazol-3-yl)-4-(trifluoromethyl)phenyl]carbonyl}amino)-2-phenyl-1H-indole-5-carboxylic acid], for which the 50% inhibitory concentration (IC50) (usually the point on the concentration scale where inhibition reaches its midpoint) came to 3.6 nM. Compared with the last compound, the IC50 is about 47-fold lower.

`Cn1ccc(-c2cc(C(=O)Nc3c(-c4ccccc4)nn4cc(C#N)ccc34)c(F)cc2C(F)(F)F)n1` [Compound 111, N-(6-cyano-2-phenylpyrazolo[1,5-a]pyridin-3-yl)-2-fluoro-5-(1-methyl-1H-pyrazol-3-yl)-4-(trifluoromethyl) benzamide] returned an IC50 of 1000 nM. In the case of `C[C@@H](O)c1ccn2c(NC(=O)c3cc(-c4ccn(C)n4)c(C(F)(F)CF)cc3F)c(-c3ccccc3)nc2c1` [Compound 115, 2-fluoro-N-{7-[(1R)-1-hydroxyethyl]-2-phenylimidazo[1,2-a]pyridin-3-yl}-5-(1-methyl-1H-pyrazol-3-yl)-4-(1,1,2-trifluoroethyl)benzamide], 3.7 nM corresponded to half-maximal inhibition (IC50).
